Reference: patent US8404225B2, “Contact sex pheromone component of the Emerald Ash Borer Agrilus planipennis Fairmaire (Coleoptera: Buprestidae)” (National Research Council of Canada, priority 2008, dated 2013)

Legend:
[1] = system: feral EAB males (Agrilus planipennis); assay: Behavioral field bioassay with dummy females (feral male contact and mating behaviour); assay type: in vivo
Protocol: Preparation of dummy females. A total of 78 EAB females that emerged from 10-15 Jul. 2008 were reared for the field bioassay. Female EAB were reared in the quarantine facilities, as described above, until the age of 14 days, when they were frozen. Prior to the field bioassay, females were removed from the freezer and thawed for 2-3 h. For 52 of the females, each female was individually rinsed in 1 ml of hexane for about 2 min. Females were then allowed to dry for a minimum of 30 min before being rinsed again. Females were rinsed a total of three times for 2 min each time and left to dry overnight after the final rinsing. All 78 females were then individually pinned through the right elytra at its base; the heads of the pins were then snipped off such that the end of the pin was only about 1 mm above the surface of the female's body and thus would not interfere with approaches by feral male EAB. Twenty-six of the rinsed females were then treated with 1 μl of racemic 9-methyl pentacosane (ca. 5 mg/ml; one female equivalent), in solution with hexane, and allowed to dry. This divided the 78 females into three treatment groups (unwashed, washed, and washed then treated). The treatment groups were indicated by pinning a small paper insect ‘point’ underneath the female that was not visible from above. The points were colored white (unwashed), yellow (washed) or blue (washed then treated). […] Females were kept at 3-4° C. in a fridge for 2 days until used in the bioassay and were transported to the field in a cooler.
Behavioral field bioassay. The field bioassay was conducted from 7-11 Jul. 2008 at a site about 1.8 km northeast of Port Lambton, ON (42° 40.16′ N, 82° 29.56′ W). […] Dummy females were pinned to foliage on epicormic shoots of infested ash trees, growing from the base of the tree up to about 1.5 m above the ground. Females were placed and removed from foliage by grasping the pin underneath the female with tweezers and were never touched directly to avoid cross-contamination. Trees were chosen based on the presence of both epicormic shoots and feral EAB males on the foliage. Dummy females were placed in a triangle shape in groups of three (one of each treatment) about 20-30 cm apart. All females were pinned on south-facing foliage so that they would be in direct sunlight. From nine to 21 females were set up at different times on different trees, based on the amount of foliage available.
Observations of dummy females began once all females were established on the foliage, and lasted for about 1 h per observation session with breaks of 5-10 min in between observation sessions. We recorded the time of arrival of each male observed to land on a female and then the time of departure for that same male to obtain its total time spent in contact with a given female. The locations of the various treatments were not recorded, so the observations on time spent in contact by males was collected by observers who were unaware of the treatment. The treatment group (unwashed, treated, washed) was then recorded by checking for the presence of the colored insect point under the female's abdomen after the male had flown away. […]
The amount of time individual males spent in contact, and the percentage of that time spent attempting to mate, with females of the three different treatments were analyzed by one-way ANOVA after logarithmic transformation of data to meet the assumptions of normality of data and equality of variance; means were compared using the Holm-Sidak test. […]

[2] = system: brown Spruce Longhorn Beetle (BSLB); settings: inventors' soon to be published research; cited from earlier work

SMILES	number of wild males landing on females ([1]; hexane-washed freeze-killed females treated with 1 μl racemic 9-methyl pentacosane (ca. 5 mg/ml; one female equivalent), field, about 40 h of observation)	percentage of contact time spent attempting to mate ([1]; subset of feral males (n=7 observations), one figure printed for unwashed and 9-Me-C25-treated females together, washed females about 20%)	contact and copulatory activity after reapplication to hexane-rinsed females ([1]; synthetic 9-Me-C25 reapplied, field bioassays)	time males spent on treated females compared with washed females ([1]; treated (n=27 observations) vs hexane-washed females (n=43), t=3.817, P=0.00004)	time males spent on treated females compared with unwashed females ([1]; treated (n=27 observations) vs unwashed females (n=36), t=0.138, P=0.89)	activity as a contact sex pheromone [2]
CCCCCCCCCCCCCCCCC(C)CCCCCCCC (racemic) [9-Me-C25, 9-methyl pentacosane]	27	60%-70%	restored almost all contact and copulatory activity	significantly longer	slightly, but not significantly, less	
CCCCCCCCCCCCCC[C@@H](C)CCCCCCCCCC (single isomer, unassigned) [11S-enantiomer]						demonstrated activity
